# Columns and labels:
# [1] = test system: Plasmodium falciparum; experiment: Antimalarial activity against Plasmodium falciparum D6 infected in RBCs assessed as inhibition of [3H]hypoxanthine incorporation after 72 hrs; assay type: functional, organism-based
# [2] = test system: Plasmodium falciparum; experiment: Antimalarial activity against Plasmodium falciparum TM91c235 harboring DHFR F57L, S58R, T61M, S117T mutant infected in RBCs assessed as inhibition of [3H]hypoxanthine incorporation after 72 hrs; assay type: functional, organism-based
# [3] = test system: Plasmodium falciparum; experiment: Antimalarial activity against Plasmodium falciparum D6 harboring Plasmodium vivax wild type DHFR infected in RBCs assessed as inhibition of [3H]hypoxanthine incorporation after 72 hrs; assay type: functional, organism-based
# [4] = test system: Plasmodium falciparum; experiment: Antimalarial activity against Plasmodium falciparum D6 harboring Plasmodium vivax DHFR S117N mutant infected in RBCs assessed as inhibition of [3H]hypoxanthine incorporation after 72 hrs; assay type: functional, organism-based
# [5] = test system: Plasmodium falciparum; experiment: Antimalarial activity against Plasmodium falciparum D6 harboring Plasmodium vivax DHFR F57L and S117N mutant infected in RBCs assessed as inhibition of [3H]hypoxanthine incorporation after 72 hrs; assay type: functional, organism-based
# [6] = test system: Plasmodium falciparum; experiment: Antimalarial activity against Plasmodium falciparum D6 harboring Plasmodium vivax DHFR S58R and S117N mutant infected in RBCs assessed as inhibition of [3H]hypoxanthine incorporation after 72 hrs; assay type: functional, organism-based
# [7] = test system: Plasmodium falciparum; experiment: Antimalarial activity against Plasmodium falciparum D6 harboring Plasmodium vivax DHFR S58R, T61M and S117N mutant infected in RBCs assessed as inhibition of [3H]hypoxanthine incorporation after 72 hrs; assay type: functional, organism-based
# [8] = test system: Plasmodium falciparum; experiment: Antimalarial activity against Plasmodium falciparum D6 harboring Plasmodium vivax DHFR F57L, S58R, T61M, S117T mutant infected in RBCs assessed as inhibition of [3H]hypoxanthine incorporation after 72 hrs; assay type: functional, organism-based
# [9] = test system: Plasmodium falciparum; experiment: Ratio of IC50 for Plasmodium falciparum D6 harboring Plasmodium vivax DHFR S117N mutant to IC50 for Plasmodium falciparum D6 harboring Plasmodium vivax wild type DHFR; assay type: functional
# [10] = test system: Plasmodium falciparum; experiment: Ratio of IC50 for Plasmodium falciparum D6 harboring Plasmodium vivax DHFR F57L and S117N mutant to IC50 for Plasmodium falciparum D6 harboring Plasmodium vivax wild type DHFR; assay type: functional
# [11] = test system: Plasmodium falciparum; experiment: Ratio of IC50 for Plasmodium falciparum D6 harboring Plasmodium vivax DHFR S58R and S117N mutant to IC50 for Plasmodium falciparum D6 harboring Plasmodium vivax wild type DHFR; assay type: functional
# [12] = test system: Plasmodium falciparum; experiment: Ratio of IC50 for Plasmodium falciparum D6 harboring Plasmodium vivax DHFR S58R, T61M and S117N mutant to IC50 for Plasmodium falciparum D6 harboring Plasmodium vivax wild type DHFR; assay type: functional
# [13] = test system: Plasmodium falciparum; experiment: Ratio of IC50 for Plasmodium falciparum D6 harboring Plasmodium vivax DHFR F57L, S58R, T61M, S117T mutant to IC50 for Plasmodium falciparum D6 harboring Plasmodium vivax wild type DHFR; assay type: functional
# [14] = test system: Plasmodium falciparum; experiment: Ratio of IC50 for Plasmodium falciparum TM91c235 harboring DHFR F57L, S58R, T61M, S117T mutant to IC50 for Plasmodium falciparum D6; assay type: functional
Compound,IC50 [1] [nM],IC50 [2] [nM],IC50 [3] [nM],IC50 [4] [nM],IC50 [5] [nM],IC50 [6] [nM],IC50 [7] [nM],IC50 [8] [nM],Ratio IC50 [9],Ratio IC50 [10],Ratio IC50 [11],Ratio IC50 [12],Ratio IC50 [13],Ratio IC50 [14]
CC1(C)N=C(N)N=C(N)N1OCCCOc1cc(Cl)c(Cl)cc1Cl,0.166,0.339,0.067,0.427,1.5,0.69,0.105,2.93,6,22,10,2,44,5
CC1(C)N=C(N)N=C(N)N1OCc1ccc(Cl)c(Cl)c1 [CLOCIGUANIL],0.021,3.16,0.022,0.067,0.219,0.582,0.073,56.4,6,10,26,3,2565,144
CC1(C)N=C(N)N=C(N)N1c1ccc(Cl)cc1 [CYCLOGUANIL],0.118,116,0.429,0.81,2.77,1.7,0.587,320,2,6,4,1,746,50
CCc1nc(N)nc(N)c1-c1ccc(Cl)cc1 [PYRIMETHAMINE],0.028,143,0.055,–,3.66,6.26,2.81,467,–,–,–,–,–,–

# Reference: ChEMBL document CHEMBL1671704, “Defining the role of mutations in Plasmodium vivax dihydrofolate reductase-thymidylate synthase gene using an episomal Plasmodium falciparum transfection system” (Antimicrob Agents Chemother, 2010)
